Measured values as given in a melting point compilation (Tetko et al.; mined from patent text by program, amines drawn as free bases though some values may be those of a salt).

SMILES | melting point
NNC(=O)c1ccccc1-c1ccc([N+](=O)[O-])cc1 | 194 to 196 °C
Cc1nnc(C(=O)CCCCCCOc2ccc(O)cc2)o1 | 134 to 135 °C
CC1(N)CCN(C2=Nc3c(nc(Cl)nc3Nc3ccc(F)c(Cl)c3)CN2)CC1 | 212 °C
CCCCCCCCCCCCCCCCCC(=O)c1ccc(C2=NC(C)(C)CO2)c(Cl)c1 | 57 to 60 °C
CC(C)(C)c1ccc(OCCOc2ccccc2[N+](=O)[O-])c([N+](=O)[O-])c1 | 114 to 116 °C
Clc1ccccc1C(c1ccccc1)(c1ccccc1)n1cccn1 | 135 °C
c1coc(P(CCP(c2ccco2)c2ccco2)c2ccco2)c1 | 94 to 96 °C
C[C@@H](S[C@H]1CO[C@H](c2ccc(C(=O)Nc3nc4ccccc4s3)cc2)OC1)[C@](O)(Cn1cncn1)c1ccc(F)cc1F | 107 °C
O=C(O)c1ccc(OCC2CC(=O)N(c3ccc(OC4CCCCC4O)cc3)C2)cc1 (centres undefined) | 203 to 208 °C
CC(C)(C)C(O)Cn1ccnc1 (centres undefined) | 239 to 241 °C
O=C(c1cc(O)c(O)c([N+](=O)[O-])c1)c1nc2ccccc2[nH]1 | 240 to 250 °C
COC(=O)c1ccccc1S(=O)(=O)N(n1cnn(-c2nc(OC)cc(OC)n2)c1=O)S(=O)(=O)c1ccccc1C(=O)OC | 176 °C
Clc1ccc(C2CC(n3cncn3)c3ccccc3N2)cc1 (centres undefined) | 150 to 152 °C
O=c1[nH]cc(C=CBr)c(=O)[nH]1 | > 320 °C
CC(=O)O[C@H]1CC=CO[C@@H]1COS(=O)(=O)c1ccc(C)cc1 | 76 to 79 °C
CC(=O)c1cnc2c(n1)C(C)(C)CCC2(C)C | 68 to 69 °C
O=C(N[C@@H]1CCC[C@H]1O)C(O)=CC(=O)c1cc(Cc2ccc(F)cc2)cn(Cc2ccccc2F)c1=O | 67 to 69 °C
CCOC(=O)NNC(=O)Nc1c(F)c(F)c(F)c(F)c1F | 180 to 182 °C
COc1ccc(-c2cc(F)c(F)cc2-c2ccc(S(C)(=O)=O)cc2)cc1Cl | 148 °C
NC(=O)c1ccc(Oc2nccc(-c3c(-c4ccc(F)cc4)ncn3C3CCNCC3)n2)cc1 | 229 to 230 °C
COC(=O)c1cc2c(nc1C(=O)OC)N(C)CC2 | 132 to 133 °C
COC(C)(C)[C@H]1CCCN1NC(=O)Nc1cccc2c1C(=O)c1c-2n[nH]c1-c1ccc(N2CCNCC2)cc1 | 218 °C
C[C@H](CO)Nc1nc(SCc2cccc(F)c2F)nc2[nH]c(=O)c(NCCO)nc12 | 197 to 199 °C
CC(C)(C)c1cc(CCC(=O)Nc2ccc(S(=O)(=O)NCCBr)cc2)cc(C(C)(C)C)c1O | 153 to 155 °C
COc1ccc(C(C)=Nc2ccc(C3=NNC(=O)CC3)cc2)c(O)c1 | 269 °C

SMILES | melting point
COC(=O)CCCc1nc2c([nH]1)c(=O)n(C)c(=O)n2C | 200 to 204 °C
COC(=O)c1ccc(OCC(C)=O)c(C(=O)OC)c1 | 115 to 116 °C
COC(=O)c1ccc2c(c1)S(=O)(=O)c1ccccc1O2 | 160 °C
CCCc1nn(C)c2c(=O)[nH]c(-c3cc(C(O)CN4CCNCC4)ccc3OCC)nc12 (centres undefined) | 130 to 140 °C
CN(Cc1ccccc1)C(=O)COc1ccc([N+](=O)[O-])cc1 | 95 to 96 °C
CCc1ccc2oc(Cc3cccc(OC)c3)c(CCNC(C)=O)c2c1 | 102 °C
CCCC(=O)N1CCc2cc(S(=O)(=O)N3CCN(c4cccc(Cl)c4)CC3)ccc21 | 267 to 268 °C
Oc1ccc2c(c1)OC(CNCCCc1c[nH]c3ccc(O)cc13)CO2 (centres undefined) | 140 to 144 °C
CCCO[C@@H]1[C@@H](OC)[C@H](C)O[C@@H](OC(=O)Nc2ccc(-c3ncn(-c4ccc(OC(F)(F)C(F)(F)F)cc4)n3)cc2)[C@@H]1OC | 158 °C
Cc1c2n(c3ccccc13)C(=O)C(Cc1cccnc1)CC2 (centres undefined) | 158 to 160 °C
CC1=C(C)C(=O)N(c2ccc(C)c(NS(=O)(=O)C(F)(F)F)c2)C1=O | 152 to 154 °C
Cc1nnc2n1-c1ccc(C#CCN3Cc4ccccc4C3=O)cc1C(c1ccccc1F)=NC2 | 165 to 168 °C
COC(=O)C1=C(C)NC(C)=C(P2(=O)OCCCO2)C1c1ccccc1[N+](=O)[O-] (centres undefined) | 249 to 251 °C
CCOC(=O)n1c(SC(F)(F)C(F)F)nc(-c2ccc(F)cc2)c1-c1ccc(F)cc1 | 137 to 139 °C
COC(=O)c1ccc(NCC=Cc2ccccc2)cn1 | 131 to 133 °C
O=c1oc2ccccc2n1-c1ccccc1[N+](=O)[O-] | 153 to 155 °C
Clc1ccc(OCC2COC(CBr)(c3ccc(Cl)cc3)O2)cc1 (centres undefined) | 165 °C
COc1cccc(C=CC(=O)CC(=O)C=Cc2cccc(OC)c2OC)c1OC | 117 to 120 °C
CCCCCCCCCCCCn1nnc(N(C(=O)Nc2ccc(F)cc2F)c2ccccc2)n1 | 55 to 57 °C
CCCCNC(=O)CNC(=O)CN1CCCC1=O | 105 to 106 °C
Fc1ccccc1N1CCN(Cc2nc3ccccc3[nH]2)CC1 | 262 to 264 °C
COCc1noc(-c2ncn3c2CN(C)C(=O)c2cc(F)ccc2-3)n1 | 192 to 194 °C
COc1cc(C2(OC)CCOCC2)ccc1OCc1ccc2ccccc2c1 | 129 °C
NC(=O)CCc1cnoc1-c1ccccc1 | 151 to 152 °C
